Data set [1] can be described thus: Kinetic aqueous solubility of the compound. To be noted: buffer; read-out: Kinetic_solubility. In kind it is physicochemical.
The nature of data set [2]: Apparent passive permeability in MDCK cells at 10 uM after 1 hr by LC-MS/MS analysis. The class given is ADME, cell-based, Canis lupus familiaris. Particulars: dog; for Papp: mdck, 1 h, 10 µM.

The structures appear in SMILES notation. In brackets after ≈: the same amount, converted by molar mass.

From ChEMBL document CHEMBL4308884, “Development and characterization of a CNS-penetrant benzhydryl hydroxamic acid class IIa histone deacetylase inhibitor” (Bioorg Med Chem Lett, 2019) come the findings set out here.

In the case of `O=C(NO)C(c1ccc(-c2nccc(C(F)(F)F)n2)cc1)c1ccccc1F` (stereo unspecified), the solubility kinetic in data set [1] was 141 µM (≈ 55.2 µg/mL). Further, the apparent permeability (Papp) result in data set [2] is “Nd(Toxic)”.

As to `Cc1cnc(-c2ccc(C(C(=O)NO)c3ccccc3F)cc2)nc1` (stereo unspecified), in data set [1], the solubility kinetic came out at 52 µM (≈ 17.5 µg/mL). Besides, in data set [2], the apparent permeability (Papp) result is given as “Nd(Toxic)”.

On to `O=C(NO)C(c1ccc(-c2cnccn2)cc1)c1ccccc1F` (stereo unspecified), for which the solubility kinetic in data set [1] worked out at 164 µM (≈ 53 µg/mL). For the same molecule, the apparent permeability (Papp) at 1 h, 10 µM in data set [2] (MDCK) turned out to be 464 nm/s.
